Experiments:
[1] = target: T1, NOTUM (Homo sapiens, UniProt Q6P988); assay: Competitive gel-based ABPP; type: biochemical; conditions: 10 μM, 30 min pretreatment at 37 °C; CM of WT-NOTUM-transfected HEK293T cells
T1 sequence (Q6P988 20-496): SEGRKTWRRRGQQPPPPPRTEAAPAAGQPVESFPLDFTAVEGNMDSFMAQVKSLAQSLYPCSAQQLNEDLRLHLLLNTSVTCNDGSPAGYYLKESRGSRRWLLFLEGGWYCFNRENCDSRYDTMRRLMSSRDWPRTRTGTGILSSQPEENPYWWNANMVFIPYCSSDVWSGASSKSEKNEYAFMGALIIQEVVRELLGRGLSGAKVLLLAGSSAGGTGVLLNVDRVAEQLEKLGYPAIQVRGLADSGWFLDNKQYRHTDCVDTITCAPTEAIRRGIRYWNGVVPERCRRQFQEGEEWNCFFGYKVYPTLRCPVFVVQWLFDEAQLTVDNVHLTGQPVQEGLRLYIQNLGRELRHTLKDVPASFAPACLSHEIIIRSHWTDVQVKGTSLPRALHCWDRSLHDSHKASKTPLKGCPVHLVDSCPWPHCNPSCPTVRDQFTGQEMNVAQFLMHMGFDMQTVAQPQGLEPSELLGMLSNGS

[2] = target: T2, PPT1 (Homo sapiens, UniProt P50897); type: cell-based; conditions: SW620 cells in situ 2 h; ABC45 probe 1 µM
T2 sequence (P50897 28-306): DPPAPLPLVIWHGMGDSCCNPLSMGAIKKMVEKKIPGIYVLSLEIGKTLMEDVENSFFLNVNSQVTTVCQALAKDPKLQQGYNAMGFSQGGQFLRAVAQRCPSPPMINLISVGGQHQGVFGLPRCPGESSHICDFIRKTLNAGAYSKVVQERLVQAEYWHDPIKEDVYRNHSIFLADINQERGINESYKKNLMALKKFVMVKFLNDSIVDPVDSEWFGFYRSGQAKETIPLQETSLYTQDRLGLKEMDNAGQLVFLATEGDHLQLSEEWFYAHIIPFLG

[3] = system: FP-biotin-enriched proteins of SW620 conditioned media; assay: Quantitative MS-based ABPP of SW620 CM; type: biochemical, human; conditions: 0.5 and 10 μM; both CM and SW620 in situ treated cells
[4] = target: T1, NOTUM; type: biochemical; conditions: SW620 CM; for inhibitory activity for NOTUM: competitive gel-based ABPP
[5] = target: T1, NOTUM; assay: ABC99yne direct labeling; conditions: 0.1 μM probe; CM and cellular lysate of SW620 cells; Rh-N3 click
[6] = system: serine hydrolases; assay: Competitive gel-based ABPP; type: cell-based, human; conditions: SW620 soluble and membrane proteomes, in situ 2 h, 37 °C, FP-Rh
[7] = target: T3, ABHD6 (Homo sapiens, UniProt Q9BV23); assay: MS-based ABPP, SW620 cells in situ; type: cell-based; conditions: 10 µM, Supplementary Figure 3
T3 sequence (Q9BV23 1-337): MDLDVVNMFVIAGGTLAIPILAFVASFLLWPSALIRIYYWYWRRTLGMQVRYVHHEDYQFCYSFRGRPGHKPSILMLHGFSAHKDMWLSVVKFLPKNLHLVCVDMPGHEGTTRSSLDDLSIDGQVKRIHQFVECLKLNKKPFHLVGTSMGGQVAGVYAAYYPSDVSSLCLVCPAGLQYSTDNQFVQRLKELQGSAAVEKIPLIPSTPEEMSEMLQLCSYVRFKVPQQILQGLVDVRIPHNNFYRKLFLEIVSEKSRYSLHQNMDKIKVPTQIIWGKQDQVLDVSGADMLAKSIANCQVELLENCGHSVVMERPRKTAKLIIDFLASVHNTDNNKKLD

SMILES: O=C1C2CN(Cc3ccc(Oc4ccccc4)nc3)CCN2C(=O)N1OC(=O)N1CCOc2ccccc21 (stereo not drawn) [ABC63]
- FP-Rh reactivity with NOTUM [1]: blocked FP-Rh reactivity with NOTUM
- PPT1 inhibition [2]: did not inhibit PPT1 at concentrations up to 10 μM

SMILES: COc1ccc(N2CCN(C(=O)ON3C(=O)C4CN(Cc5ccc(Br)cc5)CCN4C3=O)CC2)cc1 (stereo not drawn) [ABC28]
- FP-Rh reactivity with NOTUM [1]: blocked FP-Rh reactivity with NOTUM

SMILES: O=C1C2CN(Cc3ccc(Cl)cc3)CCN2C(=O)N1OC(=O)N1CCOc2ccccc21 (stereo not drawn) [ABC99]
- PPT1 inhibition [2]: did not cross-react
- cross-reactivity with the 64 additional serine hydrolases quantified by MS-ABPP [3]: virtually no cross-reactivity

SMILES: C#CCN1CCN(C(=O)ON2C(=O)C3CN(Cc4ccc(Cl)cc4)CCN3C2=O)c2ccccc21 (stereo not drawn) [ABC99yne]
- IC50 for blockade of FP-Rh reactivity of NOTUM ([4]; 30 min, 37 °C): sub-micromolar
- direct labeling selectivity [5]: highly selective labeling of NOTUM with no other cross-reactive proteins observed

SMILES: COc1ccc(N2CCN(C(=O)ON3C(=O)C4CN(Cc5ccc(Cl)cc5)CCN4C3=O)CC2)cc1 (stereo not drawn) [ABC90]
- selectivity across serine hydrolases [6]: only a single major site of ABC90 cross reactivity was observed; a 35 kDa protein that we suspected was ABHD6
- PPT1 inhibition [2]: potent inhibitor of PPT1

SMILES: O=C(c1ccc(Cl)cc1)N1CCN2C(=O)N(OC(=O)N3CCOc4ccccc43)C(=O)C2C1 (stereo not drawn) [ABC101]
- inhibitory activity for NOTUM [4]: lost inhibitory activity for NOTUM
- inhibition of ABHD6 [7]: maintained inhibition of ABHD6

SMILES: COc1ccc(N2CCN(C(=O)ON3C(=O)C4CN(Cc5cccc(Cl)c5)CCN4C3=O)CC2)cc1 (stereo not drawn) [ABC91]
- inhibitory activity for NOTUM [4]: completely lost activity

Reference: PMC6004566 (ACS Medicinal Chemistry Letters, 2018)
